Data reported in patent US5854252A, “Dihalotriazolopyrimidine derivatives” (Shell Internationale Research Maatschappij B.V., priority 1993, dated 1998).
Converted amounts (≈) assume the structure as drawn.

Assays:
Leptosphaeria nodorum = assay: Activity against wheat leafspot (LN), Example 54(e); format: in vivo; details: therapeutic foliar spray as under (a) (600 ppm)
Method: The test is a direct therapeutic one using a foliar spray. Wheat seedlings (cv Norman), at the single leaf stage, are inoculated with an aqueous suspension containing 1.5×10^6 conidia/ml. The inoculated plants are kept for 24 hours at 20° C. in a high humidity cabinet, followed by spraying with the test compound as described under (a). After drying, the plants are kept for 6-8 days in the glasshouse at 22° C. and 70% relative humidity. Assessment is based on the density of lesions per leaf compared with that on leaves of control plants. The extent of disease control in all the above tests is expressed as a rating compared with either an untreated control or a diluent-sprayed-control, according to the criteria: […]

[1] = test system: Pseudocercosporella herpotrichoides; assay: MIC by serial dilution, Example 55, Pseudocercosporella herpotrichoides; format: cell-based; details: Oculimacula yallundae; microtitre plates, 20° C., 6-8 days
Method: (§1) The MIC (Minimum Inhibition Concentration)-values were determined by serial dilution tests using 48-well microtitre plates. The dilution of the test compounds in the nutrient solution and the distribution to the wells were carried out by a TECAN RSP 5000 robotic sample processor.
(§2) For preparation of the nutrient solution, V8 juice (Trade Mark) was neutralised with calcium carbonate and centrifuged. The supernatant was diluted with distilled water (1:5) to the final concentration.
(§3) The fungi (Alternaria solani, Botrytis cinerea, Pseudocercosporella herpotrichoides, Micronectriella nivalis, Gaeumannomyces graminis) were added into the wells as a droplet of spore suspension. The microtitre plates were then incubated at 20° C. for 6-8 days. The MIC-value, which was defined to be the lowest concentration in the dilution series without mycelial growth, was determined by visual inspection of the plates.

Micronectriella nivalis = assay: MIC by serial dilution, Example 55, Micronectriella nivalis; format: cell-based; details: microtitre plates, 20° C., 6-8 days
Method: as §1, §2, §3

Gaeumannomyces graminis = assay: MIC by serial dilution, Example 55, Gaeumannomyces graminis; format: cell-based; details: microtitre plates, 20° C., 6-8 days
Method: as §1, §2, §3

Plasmopara viticola [2] = assay: Antisporulant activity against vine downy mildew (PVA), Example 54(a); format: in vivo; details: antisporulant foliar spray, 600 ppm
Method: The test is a direct antisporulant one using a foliar spray. The lower surface of leaves of vine plants (cv. Cabernet Sauvignon), approximately 8 cm high, are inoculated with an aqueous suspension containing 5×10^4 zoosporangia/ml. The inoculated plants are kept for 24 hours at 21° C. in a high humidity cabinet, then for 24 hours in a glasshouse at 20° C. and 40% relative humidity. Infected leaves are sprayed on their lower surfaces with a solution of the test compound in 1:1 water/acetone containing 0.04% "TWEEN 20" (Trade Mark; a polyoxyethylene sorbitan ester surfactant). Plants are sprayed using a track sprayer equipped with 2 air-atomising nozzles. The concentration of the compound is 600 ppm and the spray volume is 750 l/ha. After drying, the plants are returned to the glasshouse at 20° C. and 40% relative humidity for 96 hours and are then transferred to the high humidity cabinet for 24 hours to induce sporulation. Assessment is based on the percentage of the leaf area covered by sporulation compared with that on control leaves. The extent of disease control in all the above tests is expressed as a rating compared with either an untreated control or a diluent-sprayed-control, according to the criteria: […]

[3] = test system: Pseudocercosporella herpotrichoides; assay: Activity against wheat eyespot in-vitro (PHI), Example 53(j); format: cell-based; details: 50 ppm, 12 days at 20° C.
Method: This test measures the in vitro activity of compounds against the fungus causing wheat eyespot. The test compound is dissolved or suspended in acetone and is added into 4 ml aliquots of half strength Potato Dextrose Broth dispensed in 25-compartment petri dishes to give a final concentration of 50 ppm compound and 2.5% acetone. Each compartment is inoculated with a 6 mm diameter plug of agar/mycelium taken from a 14 day old culture of P. herpotrichoides. Plates are incubated at 20° C. for 12 days until the assessment of mycelial growth. The extent of disease control in all the above tests is expressed as a rating compared with either an untreated control or a diluent-sprayed-control, according to the criteria: […]

Plasmopara viticola [4] = assay: Antisporulant activity against vine downy mildew (PVA), Example 53(a); format: in vivo; details: antisporulant foliar spray, 1000 ppm
Method: The test is a direct antisporulant one using a foliar spray. The lower surface of leaves of whole vine plants (cv Cabernet Sauvignon) are inoculated by spraying with an aqueous suspension containing 2.5×10^4 zoosporangia/ml two days prior to treatment with the test compound. The inoculated plants are kept for 24 hours in a high humidity compartment, then 24 hours at glasshouse ambient temperature and humidity. Infected leaves are sprayed on their lower surfaces with a solution of active material in 1:1 water/acetone containing 0.04% "TWEEN 20" (Trade Mark; a polyoxyethylene sorbitan ester surfactant). Plants are treated using an automated sprayline with an atomising nozzle. The concentration of the compound is 1000 ppm, and the spray volume is 700 l/ha. After spraying, the plants are returned to normal glasshouse conditions for 96 hours and are then transferred to the high humidity cabinet for 24 hours to induce sporulation, prior to assessment. Assessment is based on the percentage of the leaf area covered by sporulation compared with that on control leaves. The extent of disease control in all the above tests is expressed as a rating compared with either an untreated control or a diluent-sprayed-control, according to the criteria: […]

Puccinia arachidis = assay: Field pot test with Puccinia arachidis on peanuts; format: in vivo; details: topical, 456 h, 500 μg/ml spray, 1000 l/ha, 19 days after treatment, Abbott formula, read-out: % efficacy Puccinia arachidis
Method: 15 seeds of peanuts were sown in pots filled with a soil substrate. When the plants have developed 4 true leaves the fungicides and the test compounds were applied using a hand sprayer. The test compounds were applied at a concentration of 500 μg/ml in a […] containing 10% acetone and 0.05% Triton X 155 in water. The total amount of […] corresponded to 1000 l/ha. Six replicates per treatment were used. 2 Days after treatment the pots were exposed to peanut plants in the field on which the fungus, Puccinia arachidis, had formed sporulating pustules on the leaves. The assessment was carried out 19 days after treatment by estimating the percentage of infected leaf area. The % efficacy was calculated using the Abbott formula.

Cercospora arachidicola = assay: Field pot test with Cercospora arachidicola on peanuts; format: in vivo; details: Mycosphaerella arachidis, topical, 360 h, 500 μg/ml spray, 1000 l/ha, 15 days after treatment, Abbott formula, read-out: % efficacy Cercospora arachidicola
Method: 15 Seeds of peanuts were sown in pots filled with a soil substrate. When the plants have developed 4 true leaves (approx. 12-14 days after seeding) the fungicides and the test compounds were applied using a hand sprayer. The test compounds were applied at a concentration of 500 μg/ml in a […] containing 10% acetone and 0.05% Triton X 155 in water. The total amount of […] corresponded to 1000 l/ha. Six replicates (pots) per treatment were used. 2 days after treatment the pots were exposed to peanut plants in the field on which the fungus, Cercospora arachidicola, had formed sporulating lesions. The assessment was carried out 15 days after treatment by estimating the percentage of infected leaf area. The % efficacy was calculated using the Abbott formula.

Pyricularia oryzae = format: in vivo; details: rice, therapeutic foliar spray, 1000 ppm
[5] = test system: Erysiphe graminis f.sp. hordei; assay: Activity against barley powdery mildew (EG), Example 53(h); format: in vivo; details: therapeutic foliar spray, 1000 ppm
Method: The test is a direct therapeutic one, using a foliar spray. Leaves of barley seedlings, (cv. Golden Promise) are inoculated by dusting with mildew conidia one day prior to treatment with the test compound. The inoculated plants are kept overnight at glasshouse ambient temperature and humidity prior to treatment. The plants are sprayed with the test compound at a dosage of 1000 ppm using an automated sprayline as described under (a). After drying, plants are returned to a compartment at 20°-25 ° C. and moderate humidity for up to 7 days, followed by assessment. Assessment is based on the percentage of leaf area covered by sporulation compared with that on leaves of control plants. The extent of disease control in all the above tests is expressed as a rating compared with either an untreated control or a diluent-sprayed-control, according to the criteria: […]

Row | Compound | LN (disease control rating) (Leptosphaeria nodorum) | MIC [1] | MIC (Micronectriella nivalis) | MIC (Gaeumannomyces graminis) | Fungicidal Activity PHI (disease control rating) [3] | further results
1 | Clc1ccc(-c2c(Cl)nc3ncnn3c2Cl)c(Cl)c1 [Example 35] | 1 (50-80% disease control) | 6.25 µg/mL (≈ 18.7 µM) | 0.39 µg/mL (≈ 1.17 µM) | 0.39 µg/mL (≈ 1.17 µM) |  | 
2 | Clc1ccccc1-c1c(Br)nc2ncnn2c1Br [Example 2, 5,7-dibromo-6-(2-chlorophenyl)-1,2,4-triazolo[1,5a]pyrimidine] | 1 (50-80% disease control) |  |  |  |  | 
3 | Cc1ccccc1-c1c(Cl)nc2ncnn2c1Cl [Example 29] |  | 12.5 µg/mL (≈ 44.8 µM) | 6.25 µg/mL (≈ 22.4 µM) | 1.56 µg/mL (≈ 5.59 µM) |  | PVA (disease control rating) (Plasmopara viticola [2]): 1 (50-80% disease control)
4 | Clc1nc2ncnn2c(Cl)c1-c1ccccc1OCc1ccccc1 [Example 20] |  |  |  |  | 1 (about 50-80% disease control) | Fungicidal Activity PVA (disease control rating) (Plasmopara viticola [4]): 2 (greater than 80% disease control)
5 | CC(C)c1ccc(-c2c(Cl)nc3ncnn3c2Cl)cc1 [Example 8] |  |  |  |  | 2 (greater than 80% disease control) | pest or weed control at 500 µg/mL (Puccinia arachidis): 17%; pest or weed control at 500 µg/mL (Cercospora arachidicola): 33%; Fungicidal Activity PO (disease control rating) (Pyricularia oryzae): 1 (about 50-80% disease control)
6 | Clc1nc2ncnn2c(Cl)c1-c1cccs1 [Example 26] |  | 6.25 µg/mL (≈ 23.1 µM) | 0.78 µg/mL (≈ 2.88 µM) | 0.39 µg/mL (≈ 1.44 µM) | 2 (greater than 80% disease control) | Fungicidal Activity EG (disease control rating) [5]: 1 (about 50-80% disease control)
